# Source: patent US9402839B2, “Selective targeting agents for mitochondria” (University of Pittsburgh—Of the Commonwealth System of …, priority 2006, dated 2016)
# Experiments:
# [1] = system: MECs; test: ActD-induced apoptosis in MECs (PS externalization, caspase-3 activation, DNA fragmentation); type: cell-based, mouse
# From the text: Cells that annexin V-positive and PI-negative were considered apoptotic.
# [2] = system: rats subjected to volume-controlled hemorrhagic shock; test: Survival of rats subjected to volume-controlled hemorrhagic shock; type: in vivo, rat
# From the text: Surgical procedures to obtain vascular access. All study protocols using rats followed the guidelines for the use of experimental animals of the US National Institutes of Health and were approved by the Institutional Animal Care and Use Committee at the University of Pittsburgh.
# Male specific pathogen-free Sprague Dawley rats (CHARLES RIVER LABORATORIES, Wilmington, Mass.), weighing 150-250 g, were housed in a temperature-controlled environment with a 12-h light/dark cycle. The rats had free access to food and water. For experiments, rats were anesthetized with intramuscular ketamine HCl (30 mg/kg) and intraperitoneal sodium pentobarbital (35 mg/kg). Animals were kept in a supine position during the experiments. Lidocaine (0.5 ml of a 0.5% solution) was injected subcutaneously to provide local anesthesia at surgical cut-down sites. In order to secure the airway, a tracheotomy was performed and polyethylene tubing (PE 240; BECTON-DICKINSON, Sparks, Md.) was introduced into the trachea. Animals were allowed to breathe spontaneously.
# The right femoral artery was cannulated with polyethylene tubing (PE 10). This catheter was attached to a pressure transducer that allowed instantaneous measurement of mean arterial pressure (MAP) during the experiment. For experiments using the pressure-controlled hemorrhagic shock (HS) model, the right jugular vein was exposed, ligated distally, and cannulated with polyethylene tubing (PE 10) in order to withdraw blood. For experiments using the volume-controlled hemorrhagic shock (HS) model, the jugular catheter was used to infuse the resuscitation solution and the right femoral vein, which was cannulated with a silicon catheter (CHRONIC-CATH, NORFOLK MEDICAL, Skokie, Ill.), was used to withdraw blood.
# All animals were instrumented within 30 min. Heparin (500 U/kg) was administered immediately after instrumentation through the femoral vein. Animals were placed in a thermal blanket to maintain their body temperature at 37° C. The positioning of the different devices aforementioned was checked postmortem.
# Survival of rats subjected to volume-controlled hemorrhagic shock. Following surgical preparation and a 5-min stabilization period to obtain baseline readings, rats were subjected to hemorrhagic shock. Bleeding was carried out in 2 phases.
# Initially, 21 ml/kg of blood was withdrawn over 20 min. Immediately thereafter, an additional 12.5 ml/kg of blood was withdrawn over 40 min. […]
# Blood pressure was recorded continuously using a commercial strain-gauge transducer, amplifier, and monitor (S90603a, SPACELABS, Redmond, Wash.). […] Hemoglobin concentration [Hb], lactate and glucose concentration were determined using an auto-analyzer (Model ABL 725, […], Westlake, Ohio). […]
# [3] = system: MECs; test: Determination of intracellular superoxide radicals (DHE oxidation, flow cytometry) in ActD-treated MECs; type: cell-based, mouse; conditions: 10 μM pretreatment, ActD 100 ng/mL; nearly two-fold ActD-induced increase
# Description: Determination of intracellular superoxide radicals Oxidation-dependent fluorogenic dye, dihydroethidium (“DHE”, Molecular Probes) was used to evaluate intracellular production of superoxide radicals. DHE is cell permeable and, in the presence of superoxide, is oxidized to fluorescent ethidium which intercalates into DNA. The fluorescence of ethidium was measured using a FACscan (BECTON-DICKINSON, Rutherford, N.J.) flow cytometer, equipped with a 488-nm argon ion laser and supplied with the Cell Quest software. Mean fluorescence intensity from 10,000 cells were acquired using a 585-nm bandpass filter (FL-2 channel).
structure (smiles),measurement,setting,value
CC(C)C[C@@H](/C=C/[C@H](Cc1ccccc1)C(=O)N1CCC[C@H]1C(=O)N[C@H](C(=O)N[C@@H](CCCNC(=O)OCc1ccccc1)C(=O)NC1CC(C)(C)N([O])C(C)(C)C1)C(C)C)NC(=O)OC(C)(C)C [XJB-5-131],DNA fragmentation,"[1]; 10 μM, ActD 100 ng/mL",prevented DNA fragmentation
same,PS externalization (annexin V-positive cells),"[1]; 10 μM, ActD 100 ng/mL",reduced the number of annexin V-positive cells
same,caspase-3 activation,"[1]; 10 μM, ActD 100 ng/mL",prevented caspase-3 activation
same,anti-apoptotic protection / cytotoxicity at higher concentrations,[1]; concentrations in excess of 10 μM,either less protective or exhibited cytotoxicity
same,rats surviving longer than 3 hours after completion of the hemorrhage protocol,[2]; 2 μmol/kg i.v.,Three of the six
same,survival versus vehicle-treated rats,"[2]; 2 μmol/kg i.v. infusion during last 20 min of hemorrhage, no resuscitation",survived significantly longer
same,rats surviving the whole 6 hour post-bleeding observation period,"[2]; 2 μmol/kg i.v., six rats",one
same,"beneficial dose, times smaller than the TEMPOL dose of previous studies",[2]; ~0.1 mg/kg versus TEMPOL 30 mg/kg bolus+30 mg/kg per h,about 300 fold
same,intracellular superoxide generation in MECs,[3],completely inhibited
